Assay results published in patent US10870678B2, “Chiral peptides” (ARCUATE THERAPEUTICS, INC., priority 2016, dated 2020).
Read-outs that look alike come from different tables or passages of the source.

Key:
[1] = tested on: HepG2 human liver cancer cell line; test: Functional Mitochondrial Toxicity Assay, XFe96 Seahorse (HepG2); format: cell-based; settings: HepG2
Protocol: (§1) The present Examples interrogate the two major energy producing pathways in the cell, mitochondrial respiration and glycolysis. HepG2 human liver cancer cell lines were dosed with test compounds and in real time the extracellular oxygen levels and pH were measured using the XFe96 flux analyser (Seahorse Biosciences). XFe Technology uses solid-state sensors to simultaneously measure both oxygen consumption rate (OCR) and extracellular acidification rate (ECAR) to determine effects on oxidative phosphorylation (OXPHOS) and glycolysis simultaneously. The cells were then subjected to sequential exposure to various inhibitors of mitochondrial functional to assess cellular metabolism.
(§2) A positive mitochondrial active compound is determined when there is a change in OCR or ECAR in the absence of cytotoxicity. Cytotoxicity was determined when both oxidative phosphorylation (OCR) and glycolysis (ECAR) were inhibited.
(§3) OCR is a measurement of oxygen content in extracellular media. Changes in OCR indicate effects on mitochondrial function, and can be bi-directional. A decrease is due to an inhibition of mitochondrial respiration, whilst an increase may indicate an uncoupler, in which respiration is not linked to energy production.
(§4) ECAR is the measurement of extracellular proton concentration (pH). An increase in signal means an increase in rate in number of pH ions (Thus decreasing pH value), and seen as an increase in glycolysis. Expressed as a fraction of basal control (rate prior to addition of compound).
(§5) Reverse capacity is the measured ability of cells to respond to an increase in energy demand, a reduction indicates mitochondrial dysfunction.
(§6) The Mitochondrial Stress Test is a series of sequential additions of compounds to the cells to assess a bioenergetics profile, and effects of test compounds on parameters such as proton leak and research capacity. This was used to assist in understanding potential mechanisms of mitochondrial toxicity. For example, it involves the addition of the follow compounds in this order:
Oligomycin is a known inhibitor of ATP synthase, and prevents the formation of ATP. This provides a measurement of the amount of oxygen consumption related to ATP production and ATP turnover. The addition of Oligomycin results in a decrease in OCR under normal conditions, and residual OCR is related to the natural proton leak.
Carbonyl cyanide 4-(trifluoromethoxy)phenylhydrazine (FCCP) is a protonphore, and is a known uncoupler of oxygen consumption from ATP production. This allows the maximum achievable transfer of electrons and oxygen consumption rate, and provides a measurement of reserve capacity.
Rotenone and antimycin A are known inhibitors of complex I and III of the electron transport chain, respectively. This inhibits electron transport completely, and any residual oxygen consumption is due to non-mitochondrial activity via oxygen requiring enzymes.

[2] = tested on: GM05162 Duchenne muscular dystrophy human cell line; test: Functional Mitochondrial Toxicity Assay (GM05162); format: cell-based
Protocol: as §1, §2, §3, §4, §5, §6
The present Example interrogates the two major energy producing pathways in the cell, mitochondrial respiration and glycolysis. A GM05162 Duchenne muscular dystrophy human cell line was dosed with test compound I-17 using the general protocol outlined in Example 2 above.

[3] = tested on: GM01061 Huntington Disease human cell line; test: Functional Mitochondrial Toxicity Assay (GM01061); format: cell-based
Protocol: as §1, §2, §3, §4, §5, §6
The present Example interrogates the two major energy producing pathways in the cell, mitochondrial respiration and glycolysis. A GM01061 Huntington Disease human cell line was dosed with test compound I-39 using the general protocol outlined in Example 2 above.

[4] = tested on: GM01299 propionic acidemia human cell line; test: Functional Mitochondrial Toxicity Assay (GM01299); format: cell-based
Protocol: as §1, §2, §3, §4, §5, §6
The present Example interrogates the two major energy producing pathways in the cell, mitochondrial respiration and glycolysis. A GM01299 propionic acidemia human cell line was dosed with test compound I-17 using the general protocol outlined in Example 2 above.

[5] = tested on: GM16548 Rett syndrome human cell line; test: Functional Mitochondrial Toxicity Assay (GM16548); format: cell-based
Protocol: as §1, §2, §3, §4, §5, §6
The present Example interrogates the two major energy producing pathways in the cell, mitochondrial respiration and glycolysis. A GM16548 Rett syndrome human cell line was dosed with test compound I-39 using the general protocol outlined in Example 2 above.

[6] = Szeto et al. 2013; cited from earlier work
[7] = tested on: glaucomatous human trabecular meshwork (GTM3) cells; settings: Chen et al. 2011; cited from earlier work
mitochondria [8] = settings: cited from earlier work
[9] = tested on: immortalized human trabecular meshwork (iHTM) cells; settings: Chen et al. 2011; cited from earlier work
mitochondria [10] = settings: US 2004/0248808, U.S. Pat. No. 7,718,620; cited from earlier work
[11] = read-out: Reserve Capacity AC50

In the case of `CC(O)CC(=O)O` (stereo not drawn) [β-OHB], the “Potential Mechanism” value [1] is reported as “Other”, the “Reserve Capacity MEC” value [1] is reported as 53.0 µM and the “Reserve Capacity ↑↓” value [1] is reported as “↑”. For the same molecule, the AC50 ([1]; read-out: ECAR AC50) was > 100 µM, the AC50 ([1]; read-out: OCR AC50) was > 100 µM and the AC50 [1, 11] was > 100 µM. The “Potential Mechanism” value [2] was “Other”, the “Reserve Capacity MEC” value [2] was 1.15 µM and the “Reserve Capacity ↑↓” value [2] was “↑”. For the same molecule, the AC50 ([2]; read-out: ECAR AC50) was > 100 µM, the AC50 [2, 11] was 69.5 µM and the “Potential Mechanism” value [3] was “Other”. The “Reserve Capacity MEC” value [3] was 81.1 µM, the “Reserve Capacity ↑↓” value [3] was “↑” and the AC50 ([3]; read-out: ECAR AC50) was > 100 µM. The AC50 ([3]; read-out: OCR AC50) was > 100 µM, the AC50 [3, 11] was > 100 µM and the “ECAR MEC” value [4] was 89.8 µM. For the same molecule, the “ECAR ↑↓” value [4] was “↓”, the “Potential Mechanism” value [4] was “Other” and the “Reserve Capacity MEC” value [4] was 25.3 µM. The “Reserve Capacity ↑↓” value [4] was “↑”, the AC50 ([4]; read-out: ECAR AC50) was > 100 µM and the AC50 ([4]; read-out: OCR AC50) was > 100 µM. For the same molecule, the AC50 [4, 11] was > 100 µM, the “Potential Mechanism” value [5] was “Other” and the “Reserve Capacity MEC” value [5] was 23.1 µM. For the same molecule, the “Reserve Capacity ↑↓” value [5] was “↑”, the AC50 ([5]; read-out: ECAR AC50) was > 100 µM and the AC50 [5, 11] was 72.2 µM.
In the case of “(D-Arg)(L-Dmt)(L-Lys)(L-Phe)-NH2 [Peptide I-1, reference compound]”, the “ECAR ↑↓” value [1] is reported as “↓”, the “Reserve Capacity ↑↓” value [1] is reported as “↑” and the “Potential Mechanism” value ([1]; listed as I-1 (1)) is reported as “No effect”. The AC50 ([1]; listed as I-1 (1), read-out: ECAR AC50) was > 100 µM, the AC50 ([1]; listed as I-1 (1), read-out: Reserve Capacity AC50) was > 100 µM and the “ECAR MEC” value ([1]; listed as I-1 (2)) was 14.3 µM. The “Potential Mechanism” value ([1]; listed as I-1 (2)) was “Other”, the “Reserve Capacity MEC” value ([1]; listed as I-1 (2)) was 90.3 µM and the AC50 ([1]; listed as I-1 (2), read-out: ECAR AC50) was > 100 µM. The AC50 ([1]; listed as I-1 (2), read-out: Reserve Capacity AC50) was > 100 µM, the AC50 ([1]; read-out: OCR AC50) was > 100 µM and the “binding to cardiolipin within the inner mitochondria membrane” value [6] was “binding to cardiolipin”. For the same molecule, the “sustained oxidative stress induced by H2O2” value [7] was “prevent”, the “reactive oxygen species (ROS) in the mitochondria” value (mitochondria [8]) was “reduces” and the “sustained oxidative stress induced by H2O2” value [9] was “prevent”. The “number of mitochondria undergoing MPT” value (mitochondria [10]) was “significantly reduce”.
With `O=C(O)CCC(=O)O` [Succinate] the “OCR MEC” value [1] was 74.8 µM, the “OCR ↑↓” value [1] was “↑” and the “Potential Mechanism” value [1] was “Uncoupler”. The “Reserve Capacity MEC” value [1] was 62.5 µM, the “Reserve Capacity ↑↓” value [1] was “↑” and the AC50 ([1]; read-out: ECAR AC50) was > 100 µM. The AC50 ([1]; read-out: OCR AC50) was > 100 µM, the AC50 [1, 11] was > 100 µM and the “ECAR MEC” value [2] was 0.179 µM. The “ECAR ↑↓” value [2] was “↑”, the “Potential Mechanism” value [2] was “Other” and the AC50 ([2]; read-out: ECAR AC50) was 2.91 µM. For the same molecule, the AC50 [2, 11] was > 100 µM, the “Potential Mechanism” value [3] was “No effect” and the AC50 ([3]; read-out: ECAR AC50) was > 100 µM. For the same molecule, the AC50 [3, 11] was > 100 µM, the “Potential Mechanism” value [4] was “Other” and the “Reserve Capacity MEC” value [4] was 38.2 µM. The “Reserve Capacity ↑↓” value [4] was “↑”, the AC50 ([4]; read-out: ECAR AC50) was > 100 µM and the AC50 ([4]; read-out: OCR AC50) was > 100 µM. For the same molecule, the AC50 [4, 11] was > 100 µM, the “Potential Mechanism” value [5] was “Other” and the “Reserve Capacity MEC” value [5] was 72.3 µM. The “Reserve Capacity ↑↓” value [5] was “↑”, the AC50 ([5]; read-out: ECAR AC50) was > 100 µM and the AC50 ([5]; read-out: OCR AC50) was > 100 µM. The AC50 [5, 11] was > 100 µM.
For “(D-Phe)(D-Orn)(D-Tyr)(D-Orn)-NH2 [Peptide I-39]”, the “ECAR ↑↓” value [1] was “↓”, the “Potential Mechanism” value [1] was “Other” and the “Reserve Capacity ↑↓” value [1] was “↑”. For the same molecule, the “ECAR MEC” value ([1]; listed as I-39(1)) was 30.1 µM, the “Reserve Capacity MEC” value ([1]; listed as I-39(1)) was 92.4 µM and the “ECAR MEC” value ([1]; listed as I-39(2)) was 15.3 µM. For the same molecule, the “Reserve Capacity MEC” value ([1]; listed as I-39(2)) was 67.6 µM, the “ECAR MEC” value ([1]; listed as I-39(3)) was 21.2 µM and the “Reserve Capacity MEC” value ([1]; listed as I-39(3)) was 77.3 µM. For the same molecule, the AC50 ([1]; read-out: ECAR AC50) was > 100 µM, the AC50 ([1]; read-out: OCR AC50) was > 100 µM and the AC50 [1, 11] was > 100 µM. The “Potential Mechanism” value [3] was “No effect”, the AC50 ([3]; read-out: ECAR AC50) was > 100 µM and the AC50 [3, 11] was > 100 µM. The “Potential Mechanism” value [5] was “Other”, the “Reserve Capacity MEC” value [5] was 60.2 µM and the “Reserve Capacity ↑↓” value [5] was “↑”. For the same molecule, the AC50 ([5]; read-out: ECAR AC50) was > 100 µM, the AC50 ([5]; read-out: OCR AC50) was > 100 µM and the AC50 [5, 11] was > 100 µM.
